From patent US9340520B2, “Hepatitis C virus inhibitors” (Bristol-Myers Squibb Company, priority 2011, dated 2016)
pEC50: −log10 of the molar value.

What was measured:
[1] = Cytotoxicity (CC50) in G 1a replicon cells; format: cell-based; settings: HCV G 1a replicon cells
Procedure: (§1) An HCV Replicon assay was utilized in the present disclosure, and was prepared, conducted and validated as described in commonly owned PCT/US2006/022197 and in O'Boyle et. al. Antimicrob Agents Chemother. 2005 April; 49(4):1346-53. Recommended assay methods incorporating luciferase reporters have also been used as described from commercial sources (Apath.com).

[2] = system: HCV genotype 1b LV/YH double resistant mutant; experiment: HCV replicon assay, genotype 1b LV/YH double resistant mutant; format: cell-based; settings: Hepatitis C virus, read-out: EC50 G 1b LV/YH
Procedure: as §1
(§2) HCV-neo replicon cells and replicon cells containing resistance substitutions in the NS5A region were used to test the currently described family of compounds. The compounds were determined to have differing degrees of reduced inhibitory activity on cells containing mutations vs. the corresponding inhibitory potency against wild-type cells. Thus, the compounds of the present disclosure can be effective in inhibiting the function of the HCV NS5A protein and are understood to be as effective in combinations as previously described in application PCT/US2006/022197 and commonly owned WO/04014852. It should be understood that the compounds of the present disclosure can inhibit multiple genotypes of HCV.

HCV genotype 1a = experiment: HCV replicon assay, genotype 1a; format: cell-based; settings: Hepatitis C virus; HCV replicon cells, genotype 1a wild type; read-out: EC50 G 1a wild type
Procedure: as §1, §2

[3] = system: genotype-1a YH single resistant mutant; experiment: HCV replicon assay, genotype-1a YH single resistant mutant; format: cell-based; settings: Hepatitis C virus, read-out: EC50 G 1a YH
Procedure: as §1, §2

[4] = IV and PO single dose pharmacokinetic studies in rat; format: in vivo; settings: male Sprague-Dawley rats, plasma; for AUC: oral gavage 5 mg/kg, 24 h, read-out: 24 h rat PK (Auc); for bioavailability: oral gavage 5 mg/kg vs IV infusion 2 mg/kg, read-out: 24 h rat PK (oral bioavailability)
Procedure: The pharmacokinetics of Examples 1 to 6 and Compound-A (WO2008/021927) were characterized in male Sprague-Dawley rats (260-310 g) (see Table 2). In these studies, two groups of animals (N=3 per group) received compound either as an intravenous (IV) infusion (2 mg/kg over 10 minutes) via the jugular vein or by oral gavage (5 mg/kg) in a vehicle of 100% PEG 400 or 90:5:5 PEG 400:ethanol:TPGS, respectively. The rats in the oral dosing group were fasted overnight. Serial blood samples were obtained at 0.17 (IV only), 0.25, 0.5, 0.75, 1, 2, 4, 6, 8, and 24 h post dose. Blood samples (˜0.3 mL) were collected from the jugular vein into K3EDTA-containing tubes and then centrifuged at 4° C. (1500-2000×g) to obtain plasma. Plasma samples were stored at −20° C. until analysis by LC/MS/MS.
A bioanalytical method utilizing liquid chromatography separation followed by tandem mass spectrometry detection (LC/MS/MS) was developed for the compound analysis in rat plasma. Detection was performed using selected reaction monitoring. Ions representing the precursor (M+H)^+ species were selected in quadrupole 1 and collisionally dissociated with N2 to generate specific product ions, which were subsequently monitored by quadrupole 3. Standard curves were prepared in male rat plasma and processed in the same manner as test samples to generate quantitative data.
Pharmacokinetic parameter values were calculated using noncompartmental methods by Kinetica. Values below the lower limit of quantification (LLOQ) were not used in calculations. Area under the curve (AUC) was calculated using the linear trapezoidal rule.

[5] = system: HCV genotype 1b wild type; experiment: HCV replicon assay, genotype 1b wild type; format: cell-based; settings: Hepatitis C virus, HCV replicon cells, read-out: EC50 G 1b wild type
Procedure: as §1, §2

Structure (SMILES) | CC50 [1] [nM] | pEC50 [2] | pEC50 (HCV genotype 1a) | pEC50 [3] | AUC [4] [µM·h] | bioavailability [4] [%] | pEC50 [5]
COC(=O)N[C@H](C(=O)N1CCC[C@H]1c1nc(-c2ccc(-c3ccc(-c4c[nH]c([C@@H]5CCCN5C(=O)[C@@H](NC(=O)OC)C5CCOCC5)n4)cc3)cc2)c[nH]1)C1CCOCC1 [Compound-A, reference compound] | 63900 | 7.70 | 10.29 | 7.89 | 0.103 | 1.3 | 9.92
COC(=O)N[C@H](C(=O)N1[C@@H](C)CC[C@H]1c1nc(-c2ccc(-c3ccc(-c4c[nH]c([C@@H]5CC[C@H](C)N5C(=O)[C@@H](NC(=O)OC)[C@H]5C[C@@H](C)O[C@@H](C)C5)n4)cc3)cc2)c[nH]1)[C@@H]1C[C@@H](C)O[C@@H](C)C1 [Example-1] | 8460 | 8.50 | 11.26 | 9.01 | 1.6 | 15 | 11.40
COC(=O)N[C@H](C(=O)N1[C@@H](C)CC[C@H]1c1nc(-c2ccc(-c3ccc(-c4c[nH]c([C@@H]5CC[C@H](C)N5C(=O)[C@@H](NC(=O)OC)C5C[C@@H](C)O[C@H](C)C5)n4)cc3)cc2)c[nH]1)C1C[C@@H](C)O[C@H](C)C1 (stereo partly drawn) [Example-2, Dimethyl(4,4′-biphenyldiylbis(1H-imidazole-4,2-diyl((2S,5S)-5-methyl-2,1-pyrrolidinediyl)((1S)-1-((2R,6R)-2,6-dimethyltetrahydro-2H-pyran-4-yl)-2-oxo-2,1-ethanediyl)))biscarbamate] | 5890 | 9.94 | 11.19 | 9.80 | 2.22 | 12 | 11.10
COC(=O)N[C@H](C(=O)N1[C@@H](C)CC[C@H]1c1nc(-c2ccc(-c3ccc(-c4c[nH]c([C@@H]5CC[C@H](C)N5C(=O)[C@@H](NC(=O)OC)C5C[C@@H](C)O[C@H](C)C5)n4)c(C)c3)cc2)c[nH]1)C1C[C@@H](C)O[C@H](C)C1 (stereo partly shown) [Example-3] | 6150 | 9.72 | 11.28 | 8.97 | 4.49 | 17 | 11.19
COC(=O)N[C@H](C(=O)N1[C@@H](C)CC[C@H]1c1nc(-c2ccc(-c3ccc(-c4c[nH]c([C@@H]5CC[C@H](C)N5C(=O)[C@@H](NC(=O)OC)C5C[C@@H](C)O[C@H](C)C5)n4)c(F)c3)cc2)c[nH]1)C1C[C@@H](C)O[C@H](C)C1 (stereo partly shown) [Example-4] | 7750 | 9.36 | 11.23 | 9.40 | 1.73 | 16 | 11.38
COC(=O)N[C@H](C(=O)N1[C@H](c2nc(-c3ccc(-c4ccc(-c5c[nH]c([C@@H]6C[C@@]7(C)C[C@H]7N6C(=O)[C@@H](NC(=O)OC)C6C[C@@H](C)O[C@H](C)C6)n5)cc4)cc3)c[nH]2)C[C@@]2(C)C[C@@H]12)C1C[C@@H](C)O[C@H](C)C1 (stereo partly shown) [Example-5] | 5340 | 11.01 | 11.43 | 10.22 | 0.539 | 6.3 | 11.16
COC(=O)N[C@H](C(=O)N1CCC[C@H]1c1nc(-c2ccc(-c3ccc(-c4c[nH]c([C@@H]5CCCN5C(=O)[C@@H](NC(=O)OC)C5C[C@@H](C)O[C@H](C)C5)n4)cc3)cc2)c[nH]1)C1C[C@@H](C)O[C@H](C)C1 (stereo partly shown) [Example-6] | 15400 | 9.18 | 10.79 | 9.42 | 1.36 | 5 | 10.44
